According to patent US11834431B2, “Crystals of cyclic amine derivative and pharmaceutical use thereof” (Toray Industries, Inc., priority 2016, dated 2023):

Legend:
[1] = Evaluation of storage stability, Form A crystal versus amorphous matter (HPLC purity); format: physicochemical; conditions: for Chemical purity, After storage / Decomposition product increased by not less than 0.15% after storage / Optical purity, After storage: airtight state, listed as Form A
[2] = Evaluation of hygroscopicity (equilibrium moisture measurement); format: physicochemical; conditions: for Weight increase: humidification with an increase in relative humidity from 5% to 65%; for Weight increase / Change in appearance: 30° C.; for Change in appearance: humidification
Description: Equilibrium moisture measurement was performed on Form A crystal and the amorphous matter of compound (I) under the following conditions using a fully automated symmetric vapor sorption analyzer (TA Instruments Inc.; VTI-SA+). […] The change in appearance was also observed.

[3] = system: fibromyalgia model rats; assay: Analgesic effect on allodynia in fibromyalgia model rats (von Frey, 50% response threshold); format: in vivo, rat; conditions: measured 3 hours after administration, Day 7, compared to negative control group
Description: The analgesic effect of the crystal of compound (I) or the pharmacologically acceptable salt thereof against fibromyalgia syndrome was evaluated using fibromyalgia model rats (Sluka et al., Journal of Pharmacology and Experimental Therapeutics, 2002, vol. 302, pp. 1146-1150; Nagakura et al., Pain, 2009, vol. 146, pp. 26-33; Sluka et al., Pain, 2009, vol. 146, pp. 3-4). Form A crystal of compound (I) was used as a crystal of compound (I) or the pharmacologically acceptable salt thereof for evaluation.
The above model rats were prepared as follows. In experiments, 6-to 7-week-old SD male rats were used for 5 or 6 cases per group. 100 μL of acidic physiological saline adjusted to pH 4.0 was administered twice to the gastrocnemius muscle of the right hind paw of each rat (the day of the administration of acidic physiological saline was defined as Day 1 after the start of the experiment, and single dose administrations were carried out on Days 1 and 6 after the start of the experiment) under inhalation anesthesia with isoflurane. The thus prepared group was determined to be an acidic physiological saline group. As a control for the model, a group treated with a physiological saline instead of an acidic physiological saline was determined to be a physiological saline group.
Allodynia observed in fibromyalgia model rats was measured using a von Frey filaments according to a method described in a known publication (Chaplan et al., Journal of Neuroscience Methods, 1994, vol. 53, pp. 55-63) and a 50% response threshold (g) was determined. On Day 7 after the start of the experiment, allodynia was measured 3 hours after oral administration of Form A crystal of compound (I), and the analgesic effect was evaluated. Allodynia of the acidic physiological saline group was measured before oral administration of Form A crystal of compound (I). […] Allodynia was measured 3 hours after the oral administration of the crystal of compound (I), and the analgesic effect was evaluated. […]

[4] = Evaluation of storage stability of Form A crystal, 6 months (HPLC purity, powder X-ray diffraction, TG-DTA); format: physicochemical
[5] = 40° C., relative humidity 75%, 8 weeks
[6] = listed as Form A crystal of compound (I)
[7] = Storage test 1: 25° C., relative humidity 60%, open state
[8] = Storage test 2: 40° C., relative humidity 75%, airtight state
[9] = Storage test 3: 60° C., airtight state
[10] = any of storage tests 1 to 3, 6 months

CN(C)C1CCN(C(=O)C[C@H](O)c2nccn2C)CC1 [Form A crystal, (S)-1-(4-(dimethylamino)piperidin-1-yl)-3-hydroxy-3-(1-methyl-1H-imidazol-2-yl)propan-1-one]
Chemical purity, After storage [1, 5]: 99.9%
Decomposition product increased by not less than 0.15% after storage [1, 5]: None
Optical purity, After storage [1, 5]: 98.8 % ee
Chemical purity, After storage ([1]; 60° C., 4 weeks): 99.8%
Decomposition product increased by not less than 0.15% after storage ([1]; 60° C., 4 weeks): None
Optical purity, After storage ([1]; 60° C., 4 weeks): 98.8 % ee
Chemical purity, Initial value ([1]; before storage): 99.9%
Optical purity, Initial value ([1]; before storage): 98.6 % ee
Weight increase [2]: 0.1%
Weight increase [2, 6]: did not experience an increase in weight
Change in appearance [2]: Maintenance of white powder
Change in appearance [2, 6]: did not deliquesce
change in the crystal form after the hygroscopicity evaluation test ([2]; powder X-ray diffraction after humidification): did not experience a change in the crystal form
improvement of allodynia (50% response threshold) ([3]; oral 1 mg/kg): significant improvement
improvement of allodynia (50% response threshold) ([3]; oral 10 mg/kg): significant improvement
Chemical purity, After 6 months [4, 7]: 99.8%
Crystal form after 6 months [4, 7]: Form A
Decomposition product increased by not less than 0.15% after 6 months [4, 7]: None
Optical purity, After 6 months [4, 7]: 99.0 % ee
Chemical purity, After 6 months [4, 8]: 99.8%
Crystal form after 6 months [4, 8]: Form A
Decomposition product increased by not less than 0.15% after 6 months [4, 8]: None
Optical purity, After 6 months [4, 8]: 99.0 % ee
Chemical purity, After 6 months [4, 9]: 99.8%
Crystal form after 6 months [4, 9]: Form A
Decomposition product increased by not less than 0.15% after 6 months [4, 9]: None
Optical purity, After 6 months [4, 9]: 99.0 % ee
change in the crystal form on storage [4, 10]: no change was observed
change of purity on storage [4, 10]: did not change
Chemical purity, Initial value ([4]; before storage): 99.8%
Optical purity, Initial value ([4]; before storage): 98.8 % ee
